In patent publication US6531610B1 (Abbott Laboratories, priority 1989, dated 2003):
Like-named read-outs stand apart in the source and are kept apart here.

Test system: HIV-13B in MT4 cells
Assay: Antiviral activity: inhibition of the cytopathic effect of HIV in MT4 cells
Format: cell-based, HIV-1
[1] = Human immunodeficiency virus 1, MT4, read-out: IC50
[2] = concentration giving 50% inhibition of the cytopathic effect of HIV, HIV-13B in MT4 cells, read-out: IC50
[3] = Human immunodeficiency virus 1, MT4

Row | Structure (SMILES) | IC50 [1] [nM] | further results
1 | Cc1ncc(COC(=O)N[C@@H](Cc2ccccc2)[C@@H](O)C[C@H](Cc2ccccc2)NC(=O)[C@@H](NC(=O)N(C)Cc2csc(C(C)C)n2)C(C)C)s1 [Example 28, (2S,3S,5S)-5-(N-(N-((N-Methyl-N-((2-isopropyl-4-thiazolyl)methyl)amino)carbonyl)valinyl)amino)-2-(N-((2-methyl-5-thiazolyl)methoxycarbonyl)amino)-1,6-diphenyl-3-hydroxyhexane] | 110 to 120 | –
2 | CC(C)[C@H](NC(=O)N(C)Cc1csc(C2CC2)n1)C(=O)N[C@@H](Cc1ccccc1)C[C@H](O)[C@H](Cc1ccccc1)NC(=O)OCc1cncs1 [Example 51] | – | IC50 [2]: 45 to 49 nM
3 | Cc1nc(CN(C)C(=O)N[C@H](C(=O)N[C@@H](Cc2ccccc2)C[C@H](O)[C@H](Cc2ccccc2)NC(=O)OCc2cncs2)C(C)C)co1 [Example 42, (2S,3S,5S)-5-(N-(N-((N-Methyl-N-((2-methyl-4-oxazolyl)methyl)amino)carbonyl)valinyl)amino)-2-(N-((5-thiazolyl)methoxycarbonyl)amino)-1,6-diphenyl-3-hydroxyhexane] | 73 to 80 | –
4 | CC(C)c1nc(CN(C)C(=O)N[C@@H](C)C(=O)N[C@@H](Cc2ccccc2)C[C@H](O)[C@H](Cc2ccccc2)NC(=O)OCc2cncs2)co1 [Example 56, (2S,3S,5S)-5-(N-(N-((N-Methyl-N-((2-isopropyl-4-oxazolyl)methyl)amino)carbonyl)-L-alaninyl)amino)-2-(N-((5-thiazolyl)methoxycarbonyl)amino)-1,6-diphenyl-3-hydroxyhexane] | 50 to 67 | –
5 | CCN(Cc1csc(C(C)C)n1)C(=O)N[C@H](C(=O)N[C@@H](Cc1ccccc1)C[C@H](O)[C@H](Cc1ccccc1)NC(=O)OCc1cncs1)C(C)C [Example 4, (2S,3S,5S)-5-(N-(N-((N-Ethyl-N-((2-isopropyl-4-thiazolyl)methyl)amino)carbonyl)valinyl)amino)-2-(N-((5-thiazolyl)methoxycarbonyl)amino)-1,6-diphenyl-3-hydroxyhexane] | 170 to 320 | –
6 | CC(C)c1nc(CCN(C)C(=O)N[C@H](C(=O)N[C@@H](Cc2ccccc2)C[C@H](O)[C@H](Cc2ccccc2)NC(=O)OCc2cncs2)C(C)C)cs1 [Example 61, (2S,3S,5S)-5-(N-(N-((N-Methyl-N-(2-(2-isopropyl-4-thiazolyl)ethyl)amino)carbonyl)valinyl)amino)-2-(N-((5-thiazolyl)methoxycarbonyl)amino)-1,6-diphenyl-3-hydroxyhexane] | 150 to 220 | –
7 | CC(C)[C@H](NC(=O)N(C)Cc1csc(C2CCC2)n1)C(=O)N[C@@H](Cc1ccccc1)C[C@H](O)[C@H](Cc1ccccc1)NC(=O)OCc1cncs1 [Example 52, (2S,3S,5S)-5-(N-(N-((N-Methyl-N-((2-cyclobutyl-4-thiazolyl)methyl)amino)carbonyl)valinyl)amino)-2-(N-((5-thiazolyl)methoxycarbonyl)amino)-1,6-diphenyl-3-hydroxyhexane] | 35 to 42 | –
8 | CC(C)CN(Cc1csc(C(C)C)n1)C(=O)N[C@@H](C)C(=O)N[C@@H](Cc1ccccc1)C[C@H](O)[C@H](Cc1ccccc1)NC(=O)OCc1cncs1 [Example 55] | – | IC50 [3]: 140 to 220 nM
9 | CC(C)c1nc(CN(C)C(=O)N[C@@H](C)C(=O)N[C@@H](Cc2ccccc2)C[C@H](O)[C@H](Cc2ccccc2)NC(=O)OCc2cncs2)cs1 [Example 3, (2S.3S.5S)-5-(N-(N-((N-Methyl-N-((2-isopropyl-4-thiazolyl)methyl)amino)carbonyl)alaninyl)amino)-2-(N-((5-thiazolyl)methoxycarbonyl)amino)-1,6-diphenyl-3-hydroxyhexane] | – | IC50 [2]: 41 to 75 nM
10 | CCC(CC)c1nc(CN(C)C(=O)N[C@H](C(=O)N[C@@H](Cc2ccccc2)C[C@H](O)[C@H](Cc2ccccc2)NC(=O)OCc2cncs2)C(C)C)cs1 [Example 44, (2S,3S,5S)-5-(N-(N-((N-Methyl-N-((2-(3-pentyl)-4-thiazolyl)methyl)amino)carbonyl)valinyl)amino)-2-(N-((5-thiazolyl)methoxycarbonyl)amino)-1,6-diphenyl-3-hydroxyhexane] | 120 to 160 | –
11 | CC(C)c1nc(CN(C(=O)N[C@H](C(=O)N[C@@H](Cc2ccccc2)C[C@H](O)[C@H](Cc2ccccc2)NC(=O)OCc2cncs2)C(C)C)C2CC2)cs1 [Example 17, (2S,3S,5S)-5-(N-(N-((N-Cyclopropyl-N-((2-isopropyl-4-thiazolyl)methyl)amino)carbonyl)valinyl)amino)-2-(N-((5-thiazolyl)methoxycarbonyl)amino)-1,6-diphenyl-3-hydroxyhexane] | 230 to 310 | –
12 | CC(C)[C@H](NC(=O)OCc1csc(N2CCOCC2)n1)C(=O)N[C@@H](Cc1ccccc1)C[C@H](O)[C@H](Cc1ccccc1)NC(=O)OCc1cncs1 [Example 11, (2S,3S,5S)-5-(N-(N-((2-(4-Morpholinyl)-4-thiazolyl)methoxycarbonyl)valinyl)amino)-2-(N-((5-thiazolyl)methoxycarbonyl)amino)-1,6-diphenyl-3-hydroxyhexane] | 17 to 132 | –
13 | CC(C)c1nc(CN(C)C(=O)N[C@H](C(=O)N[C@@H](Cc2ccccc2)C[C@H](O)[C@H](Cc2ccccc2)NC(=O)OCc2ccno2)C(C)C)co1 [Example 27, (2S,3S,5S)-5-(N-(N-((N-Methyl-N-((2-isopropyl-4-oxazolyl)methyl)amino)carbonyl)valinyl)amino)-2-(N-((5-isoxazolyl)methoxycarbonyl)amino)-1,6-diphenyl-3-hydroxyhexane] | 11 to 12 | –
14 | CC(C)c1nc(CN(C)C(=O)N[C@H](C(=O)N[C@@H](Cc2ccccc2)C[C@H](O)[C@H](Cc2ccccc2)NC(=O)OCc2cncs2)C(C)C)co1 [Example 18, (2S,3S,5S)-5-(N-(N-((N-Methyl-N-((2-isopropyl-4-oxazolyl)methyl)amino)carbonyl)valinyl)amino)-2-(N-((5-thiazolyl)methoxycarbonyl)amino)-1,6-diphenyl-3-hydroxyhexane] | 39 to 46 | –
15 | CC(C)c1nc(COC(=O)N[C@@H](C)C(=O)N[C@@H](Cc2ccccc2)C[C@H](O)[C@H](Cc2ccccc2)NC(=O)OCc2cncs2)cs1 [Example 7, (2S,3S,5S)-5-(N-(N-((2-Isopropyl-4-thiazolyl)methoxycarbonyl)alaninyl)amino)-2-(N-((5-thiazolyl)methoxycarbonyl)amino)-1,6-diphenyl-3-hydroxyhexane] | 76 to 131 | –
16 | CC(C)c1nc(CN(C)C(=O)N[C@H](C(=O)N[C@@H](Cc2ccccc2)C[C@H](O)[C@H](Cc2ccccc2)NC(=O)OCc2ccno2)C(C)C)cs1 [Example 26, (2S,3S,5S)-5-(N-(N-((N-Methyl-N-((2-isopropyl-4-thiazolyl)methyl)amino)carbonyl)valinyl)amino)-2-(N-((5-isoxazolyl)methoxycarbonyl)amino)-1,6-diphenyl-3-hydroxyhexane] | 7 to 11 | –
17 | CC(C)c1nc(CN(C)C(=O)N[C@H](C(=O)N[C@@H](Cc2ccccc2)C[C@H](O)[C@H](Cc2ccccc2)NC(=O)OCc2cncs2)C(C)C)cs1 [Example 1, (2S,3S,5S)-5-(N-(N-((N-Methyl-N-((2-isopropyl-4-thiazolyl)methyl)amino)carbonyl)valinyl)amino)-2-(N-((5-thiazolyl)methoxycarbonyl)amino)-1,6-diphenyl-3-hydroxyhexane] | 25 to 40 | –
18 | CC(C)c1nc(COC(=O)N[C@H](C(=O)N[C@@H](Cc2ccccc2)C[C@H](O)[C@H](Cc2ccccc2)NC(=O)OCc2cncs2)C(C)C)cs1 [Example 5, (2S,3S,5S)-5-(N-(N-((2-Isopropyl-4-thiazolyl)methoxycarbonyl)valinyl)amino)-2-(N-((5-thiazolyl)methoxycarbonyl)amino)-1,6-diphenyl-3-hydroxyhexane] | 3 to 9 | –
19 | CCc1nc(CN(C)C(=O)N[C@H](C(=O)N[C@@H](Cc2ccccc2)C[C@H](O)[C@H](Cc2ccccc2)NC(=O)OCc2cncs2)C(C)C)cs1 [Example 53, (2S,3S,5S)-5-(N-(N-((N-Methyl-N-((2-ethyl-4-thiazolyl)methyl)amino)carbonyl)valinyl)amino)-2-(N-((5-thiazolyl)methoxycarbonyl)amino)-1,6-diphenyl-3-hydroxyhexane] | 32 to 73 | –
20 | CC(C)[C@H](NC(=O)OCc1csc(N2CCOCC2)n1)C(=O)N[C@@H](Cc1ccccc1)[C@@H](O)C[C@H](Cc1ccccc1)NC(=O)OCc1cncs1 [Example 12, (2S,3S,5S)-2-(N-(N-((2-(4-Morpholinyl)-4-thiazolyl)-methoxycarbonyl)valinyl)amino)-5-(N-((5-thiazolyl)-methoxycarbonyl)amino)-1,6-diphenyl-3-hydroxyhexane] | 53 to 106 | –
21 | CC(C)c1nc(CCOC(=O)N[C@H](C(=O)N[C@@H](Cc2ccccc2)C[C@H](O)[C@H](Cc2ccccc2)NC(=O)OCc2cncs2)C(C)C)cs1 [Example 47, (2S,3S,5S)-5-(N-(N-((2-(2-Isopropyl-4-thiazolyl)ethoxy)carbonyl)valinyl)amino)-2-(N-((5-thiazolyl)methoxycarbonyl)amino)-1,6-diphenyl-3-hydroxyhexane] | 9 to 24 | –
22 | CC(C)c1nc(CN(C(=O)N[C@@H](C)C(=O)N[C@@H](Cc2ccccc2)C[C@H](O)[C@H](Cc2ccccc2)NC(=O)OCc2cncs2)C2CC2)cs1 [Example 15, (2S,3S,5S)-5-(N-(N-((N-Cyclopropyl-N-((2-isopropyl-4-thiazolyl)methyl)amino)carbonyl)alaninyl)amino)-2-(N-((5-thiazolyl)methoxycarbonyl)amino)-1,6-diphenyl-3-hydroxyhexane] | 430 to 670 | –
23 | CC(C)c1nc(COC(=O)N[C@H](C(=O)N[C@@H](Cc2ccccc2)[C@@H](O)C[C@H](Cc2ccccc2)NC(=O)OCc2cncs2)C(C)C)cs1 [Example 6, (2S,3S,5S)-2-(N-(N-((2-Isopropyl-4-thiazolyl)methoxycarbonyl)valinyl)amino)-5-(N-((5-thiazolyl)methoxycarbonyl)amino)-1,6-diphenyl-3-hydroxyhexane] | 6 to 14 | –
24 | CCCN(Cc1csc(C(C)C)n1)C(=O)N[C@@H](C)C(=O)N[C@@H](Cc1ccccc1)C[C@H](O)[C@H](Cc1ccccc1)NC(=O)OCc1cncs1 [Example 54] | – | IC50 [3]: 110 to 170 nM
